From article PMC7654512 (Bioorganic & medicinal chemistry letters, 2019)

Tests used:
[1] = Hydrolytic stability of L-Dopa phosphoramidate prodrugs; format: physicochemical; conditions: for hydrolytic stability relative to 1b (in words): 37 °C, 31P NMR, pH not stated at the place
[2] = L-Dopa alone, systemic circulation; cited from earlier work

CC(=O)N[C@@H](COP(=O)([O-])N[C@@H](Cc1ccc(O)c(O)c1)C(=O)[O-])C(=O)[O-].[K+].[K+].[K+] [1b]
half-life ([1]; buffer, pH 7.4, half-life (t1/2) of hydrolysis, pH 7.4, 37 °C, 31P NMR over 16 h, internal standard TPPO, first-order kinetics): ~10 h

O=C([O-])CCOP(=O)([O-])N[C@@H](Cc1ccc(O)c(O)c1)C(=O)[O-].[K+].[K+].[K+] [1c]
hydrolytic stability relative to 1b (in words) [1]: unstable compared to 1b

CC(=O)N[C@H](C(=O)[O-])[C@@H](C)OP(=O)([O-])N[C@@H](Cc1ccc(O)c(O)c1)C(=O)[O-].[K+].[K+].[K+] [1a]
hydrolytic stability relative to 1b (in words) [1]: considerably less stable than the serine analog 1b

N[C@@H](Cc1ccc(O)c(O)c1)C(=O)O [L-Dopa, Levodopa]
circulating half-life [2]: approximately 1 h

CC(=O)NCCOP(=O)([O-])N[C@@H](Cc1ccc(O)c(O)c1)C(=O)[O-].[K+].[K+] [1e]
hydrolytic stability (in words) ([1]; pH 7.4, 37 °C, 31P NMR over 16 h): stable
